From patent US7528128B2, “Pyrrolo[2,1-C][1,4]benzodiazepine hybrids and a process for the preparation thereof” (Council of Scientific & Industrial Research, priority 2006, dated 2009)

Assays:
Colo205 (colon) = experiment: In vitro cytotoxicity, 48 h continuous drug exposure; type: cell-based, human
Description: (§1) In vitro evaluation of cytotoxic activity. The compound 5a, 5b, 5g, 5i and 5j were evaluated for in vitro anticancer activity against nine human tumour cells derived from six cancer types (colon, prostate, oral, lung, cervix and breast cancer) as shown in Table 3. […] Compounds 5a, 5b, 5g, 5i and 5j have been evaluated for their in vitro cytotoxicity in selected human cancer cell lines of colon (Colo205), lung (Hop-62), cervix (SiHa), prostate (DU145, PC3), oral (DWD, HT1080), and breast (MCF7, Zr-75-1) origin. A protocol of 48 h continuous drug exposure has been used and an […] has been used to estimate cell viability or growth. […] Compound 5a, Colo205 cell growth by 83%, DU145 cell growth by 84%, DWD cell growth by 70%, Hop62 cell growth by 87%, HT1080 cell growth by 80%, MCF7 cell growth by 73%, PC3 cell growth by 91%, SiHa cell growth by 67%, Zr-75-1 cell growth by 76%. Compound 5b, Colo205 cell growth by 20%, DU145 cell growth by 64%, DWD cell growth by 70%, Hop62 cell growth by 78%, HT1080 cell growth by 72%, MCF7 cell growth by 69%, PC3 cell growth by 72%, SiHa cell growth by 20%, Zr-75-1 cell growth by 20%. Compound 5g, Colo205 cell growth by 50%, DU145 cell growth by 20%, DWD cell growth by 94%, Hop62 cell growth by 84%, HT1080 cell growth by 94%, MCF7 cell growth by 71%, PC3 cell growth by 86%, SiHa cell growth by 74%, Zr-75-1 cell growth by 72%. Compound 5i, DU145 cell growth by 42%, Hop62 cell growth by 60%, HT1080 cell growth by 70%, Compound 5j, Colo205 cell growth by 44%, DU145 cell growth by 57%, DWD cell growth by 65%, Hop62 cell growth by 53%, HT1080 cell growth by 71%, PC3 cell growth by 81%, SiHa cell growth by 77%.

DU145 (prostate) = experiment: as above; type: cell-based, human
Description: as §1

DWD (oral) = experiment: as above; type: cell-based, human
Description: as §1

HT1080 (oral) = experiment: as above; type: cell-based, human
Description: as §1

Hop62 (lung) = experiment: as above; type: cell-based, human
Description: as §1

MCF7 (breast) = experiment: as above; type: cell-based, human
Description: as §1

PC3 (prostate) = experiment: as above; type: cell-based, human
Description: as §1

SiHa (cervix) = experiment: as above; type: cell-based, human
Description: as §1

Zr-75-1 (breast) = experiment: as above; type: cell-based, human
Description: as §1

[1] = tested on: duplex-form calf thymus DNA (CT-DNA); experiment: Thermal denaturation studies with CT-DNA; type: binding
Description: Compounds were subjected to thermal denaturation studies with duplex-form calf thymus DNA (CT-DNA) using an adaptation of a reported procedure. Working solutions in aqueous buffer (10 mM NaH2PO4/Na2HPO4, 1 mM Na2EDTA, pH 7.00+0.01) containing CT-DNA (100 μm in phosphate) and the PBD (20 μm) were prepared by addition of concentrated PBD solutions in DMSO to obtain a fixed [PBD]/[DNA] molar ratio of 1:5. The DNA-PBD solutions were incubated at 37° C. for 0, 18, and 36 h prior to analysis. Samples were monitored at 260 nm using a Beckman DU-7400 spectrophotometer fitted with high performance temperature controller, and heating was applied at 1° C. min−1 in the 40-90° C. range. DNA helix coil transition temperatures (Tm) were obtained from the maxima in the (dA260)/dT derivative plots. Results are given as the mean ±standard deviation from three determinations and are corrected for the effects of DMSO co-solvent using a linear correction term. Drug-induced alterations in DNA melting behaviour are given by: ΔTm=Tm(DNA+PBD)−Tm (DNA alone), where the Tm value for the PBD-free CT-DNA is 69.0±0.01.

[2] = tested on: selected human cancer cell lines; experiment: In vitro cytotoxicity in selected human cancer cell lines (overall statements); type: cell-based; settings: Table 3
Description: as §1

sixty human tumour cells = experiment: NCI in vitro anticancer screen, SRB protein assay, mean graph midpoints; type: cell-based; settings: human tumour cell lines, 48 h continuous drug exposure
Description: Biological Activity: some of in vitro biological activity studies were carried out at the National Cancer Institute, Maryland, USA.
5e was evaluated for in vitro anticancer activity against sixty human tumour cells derived from nine cancer types (leukemia, non-small-cell lung, colon, CNS, melanoma, ovarian, prostate, and breast cancer) as shown in (Table 1 and 2). For the compound, dose response curves for each cell line were measured at a minimum of five concentrations at 10 fold dilutions. A protocol of 48 h continuous drug exposure was used and a sulforhodamine B (SRB) protein assay was used to estimate cell viability or growth. The concentration causing 50% cell growth inhibition (GI50), total cell growth inhibition (TGI 0% growth) and 50% cell death (LC50, −50% growth) compared with the control was calculated.

[3] = relative to untreated control cells

## COc1cc2c(cc1OCCCCOc1ccc(Cl)cc1C(=O)c1ccccc1)N=C[C@@H]1CCCN1C2=O [Compound 5b, 7-methoxy-8-{4-[2-benzoyl-(4-chlorophenyloxy)butoxy]}-(11aS)-1,2,3,11a-tetrahydro-5H-pyrrolo[2,1-c][1,4]benzodiazepine-5-one]
Colo205 (colon); Colo205, Colon
  Activity status in terms of IC50 value: 32 µg/mL
Colo205 (colon); Colo205, relative to untreated control cells
  cell growth by %: 20%
DU145 (prostate); DU145, Prostate
  Activity status in terms of IC50 value: 35 µg/mL
DU145 (prostate); DU145, relative to untreated control cells
  cell growth by %: 64%
DWD (oral); Oral
  Activity status in terms of IC50 value: 30 µg/mL
DWD (oral); [3]
  cell growth by %: 70%
HT1080 (oral); HT1080, Oral
  Activity status in terms of IC50 value: 28 µg/mL
HT1080 (oral); HT1080, relative to untreated control cells
  cell growth by %: 72%
Hop62 (lung); Hop62, Lung
  Activity status in terms of IC50 value: 22 µg/mL
Hop62 (lung); Hop62, relative to untreated control cells
  cell growth by %: 78%
MCF7 (breast); MCF7, Breast
  Activity status in terms of IC50 value: 31 µg/mL
MCF7 (breast); MCF7, relative to untreated control cells
  cell growth by %: 69%
PC3 (prostate); PC3, Prostate
  Activity status in terms of IC50 value: 28 µg/mL
PC3 (prostate); PC3, relative to untreated control cells
  cell growth by %: 72%
SiHa (cervix); Cervix
  Activity status in terms of IC50 value: >80 µg/mL
SiHa (cervix); [3]
  cell growth by %: 20%
Zr-75-1 (breast); Zr-75-1, Breast
  Activity status in terms of IC50 value: >80 µg/mL
Zr-75-1 (breast); Zr-75-1, relative to untreated control cells
  cell growth by %: 20%
[1]; [PBD]:[DNA] 1:5, CT-DNA 100 μM, ligand 20 μM, pH 7.00, 0 h
  ΔTm after incubation at 37° C. for 0 h: 1.5 °C
[1]; [PBD]:[DNA] 1:5, CT-DNA 100 μM, ligand 20 μM, pH 7.00, 18 h
  ΔTm after incubation at 37° C. for 18 h: 2.1 °C
[1]; [PBD]:[DNA] 1:5, CT-DNA 100 μM, ligand 20 μM, pH 7.00, 36 h
  ΔTm after incubation at 37° C. for 36 h: 2.6 °C
[1]; incubation at 37° C.
  course of ΔTm over 0 hr, 18 hr and 36 hr (in words): gradually increased
[2]
  cytotoxicity against some cancer cell lines (in words): promising cytotoxicity

## COc1cc2c(cc1OCCCCCOc1c(C)cc(Cl)cc1C(=O)c1ccccc1)N=C[C@@H]1CCCN1C2=O [Compound 5f, 7-methoxy-8-{3-[2-benzoyl-(4-chloro-6-methylphenyloxy)pentoxy]}-(11aS)-1,2,3,11a-tetrahydro-5H-pyrrolo[2,1-c][1,4]benzodiazepine-5-one]
Sixty human tumour cells
  Log10GI50 mean graph midpoint (MG_MID): −6.47
  Log10LC50 mean graph midpoint (MG_MID): −4.89
  Log10TGI mean graph midpoint (MG_MID): −5.24
